The values below come from patent publication US10988459B2 (priority 2015, dated 2021).

For this assay, the target named is human RIP1 kinase domain (2-375) (Homo sapiens (Human), UniProt Q13546). The assay is described as follows: biochemical. The assay is classed as biochemical. The settings on record: human RIP1 kinase domain (2-375), 50 uM ATP, 2 hours incubation, Transcreener ADP assay; read-out: RIP1 Ki. Put shortly:
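Ki^app comes from Morrison tight-binding fits of fractional activity versus compound concentration. Activity was read as ADP production, via tracer displacement lowering fluorescence polarization (633 nm laser). Conditions: 2 h, 50 nM insect-cell-expressed enzyme, 50 uM ATP, 30 mM MgCl2, 1 mM DTT, 0.5% DMSO, pH 7.5 Hepes.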

The structures appear in SMILES notation.

Sequence of human RIP1 kinase domain (2-375) (Q13546 2-375): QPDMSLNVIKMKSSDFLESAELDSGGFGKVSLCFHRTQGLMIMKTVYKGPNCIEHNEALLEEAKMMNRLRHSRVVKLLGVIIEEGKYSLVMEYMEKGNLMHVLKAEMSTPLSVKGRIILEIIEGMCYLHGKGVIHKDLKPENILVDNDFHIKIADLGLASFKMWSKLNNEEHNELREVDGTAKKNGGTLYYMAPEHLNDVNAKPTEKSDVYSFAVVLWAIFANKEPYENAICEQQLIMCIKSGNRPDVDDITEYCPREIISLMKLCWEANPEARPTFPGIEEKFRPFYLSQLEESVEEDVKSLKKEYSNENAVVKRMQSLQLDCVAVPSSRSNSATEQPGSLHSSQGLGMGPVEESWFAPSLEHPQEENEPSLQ

On to `CC(C)n1ncc2c1OC[C@H](NC(=O)c1nnc(Cc3ccccc3)[nH]1)C(=O)N2` [Example 197, (S)-5-benzyl-N-(1-isopropyl-5-oxo-4,5,6,7-tetrahydro-1H-pyrazolo [3,4-b][1,4]oxazepin-6-yl)-4H-1,2,4-triazole-3-carboxamide], for which the inhibitory constant (Ki) was 5100 nM.
Turning to `O=C(NC1CCn2ncc3c2N(CCO3)C1=O)c1ncn(Cc2ccccc2)n1` (stereo not shown) [Example 198, 1-benzyl-N-(6-oxo-4,5,6,7,8,9-hexahydro-3-oxa-1,5a,9a-triazabenzo[cd]azulen-7-yl)-1H-1,2,4-triazole-3-carboxamide], the Ki was found to be 232 nM.
Regarding `O=C(NC1CCn2ncc3c2N(CCO3)C1=O)c1nnc(Cc2ccccc2)[nH]1` (stereo not shown) [Example 199, 5-benzyl-N-(6-oxo-4,5,6,7,8,9-hexahydro-3-oxa-1,5a,9a-triazabenzo[cd]azulen-7-yl)-4H-1,2,4-triazole-3-carboxamide], the inhibition constant (Ki) amounted to 766 nM.
As to `CN1C(=O)[C@@H](NC(=O)c2nnc3cnc(C(F)(F)F)cn23)COc2ccccc21` [Example 200, (S)—N-(5-methyl-4-oxo-2,3,4,5-tetrahydrobenzo[b][1,4]oxazepin-3-yl)-6-(trifluoromethyl)-[1,2,4]triazolo[4,3-a]pyrazine-3-carboxamide], the Ki amounted to 1700 nM.
As for `CCC1(C)OCc2nnc(C(=O)N[C@H]3COc4ccccc4N(C)C3=O)cc21` (stereo partly drawn) [Example 201, 5-ethyl-5-methyl-N—((S)-5-methyl-4-oxo-2,3,4,5-tetrahydrobenzo[b][1,4]oxazepin-3-yl)-5,7-dihydrofuro[3,4-c]pyridazine-3-carboxamide], the inhibition constant (Ki) is 411 nM.
Take `CCn1ncc2cnc(C(=O)N[C@H]3COc4ccccc4N(C)C3=O)cc21` [Example 202, (S)-1-ethyl-N-(5-methyl-4-oxo-2,3,4,5-tetrahydrobenzo[b][1,4]oxazepin-3-yl)-1H-pyrazolo[4,3-c]pyridine-6-carboxamide]: the inhibition constant Ki was determined as 57.6 nM.
For `CC(C)n1ncc2c1OC[C@H](NC(=O)c1ncn(Cc3ccccc3)n1)C(=O)N2` [Example 203, (S)-1-benzyl-N-(1-isopropyl-5-oxo-4,5,6,7-tetrahydro-1H-pyrazolo[3,4-b][1,4]oxazepin-6-yl)-1H-1,2,4-triazole-3-carboxamide], the Ki was found to be 912 nM.
`CN1C(=O)C(NC(=O)c2ncn(Cc3ccccc3)n2)CCn2cncc21` (stereo not shown) [Example 204, 1-benzyl-N-(1-methyl-2-oxo-2,3,4,5-tetrahydro-1H-imidazo[1,5-a][1,3]diazepin-3-yl)-1H-1,2,4-triazole-3-carboxamide]: the Ki is 84.3 nM.
With `CN1C(=O)[C@@H](NC(=O)c2n[nH]c3c2CC(c2ccc(F)cc2)OC3)COc2ccccc21` (stereo partly drawn) [Example 205, 5-(4-fluorophenyl)-N—((S)-5-methyl-4-oxo-2,3,4,5-tetrahydrobenzo[b][1,4]oxazepin-3-yl)-1,4,5,7-tetrahydropyrano[3,4-c]pyrazole-3-carboxamide], the inhibition constant Ki came to 98.3 nM.
Regarding `CN1C(=O)[C@@H](NC(=O)c2n[nH]c3c2CC(c2ccc(F)c(F)c2)OC3)COc2ccccc21` (stereo partly drawn) [Example 206, 5-(3,4-difluorophenyl)-N—((S)-5-methyl-4-oxo-2,3,4,5-tetrahydrobenzo[b][1,4]oxazepin-3-yl)-1,4,5,7-tetrahydropyrano[3,4-c]pyrazole-3-carboxamide], the inhibition constant Ki came to 131 nM.
Next, `CN1C(=O)[C@@H](NC(=O)c2n[nH]c3c2CC(c2ccc(F)cc2F)OC3)COc2ccccc21` (stereo partly drawn) [Example 207, 5-(2,4-difluorophenyl)-N—((S)-5-methyl-4-oxo-2,3,4,5-tetrahydrobenzo[b][1,4]oxazepin-3-yl)-1,4,5,7-tetrahydropyrano[3,4-c]pyrazole-3-carboxamide]: 61.7 nM; `CN1C(=O)C(NC(=O)c2ncn(Cc3ccccc3)n2)CCn2nc(-c3ccccc3)cc21` (stereo not shown) [Example 208, 1-benzyl-N-(4-methyl-5-oxo-2-phenyl-5,6,7,8-tetrahydro-4H-pyrazolo[1,5-a][1,3]diazepin-6-yl)-1H-1,2,4-triazole-3-carboxamide]: 120 nM; `CN1C(=O)C(NC(=O)c2n[nH]c(Cc3ccccc3)n2)CCn2nc(-c3ccccc3)cc21` (stereo not shown) [Example 209, 5-benzyl-N-(4-methyl-5-oxo-2-phenyl-5,6,7,8-tetrahydro-4H-pyrazolo[1,5-a][1,3]diazepin-6-yl)-1H-1,2,4-triazole-3-carboxamide]: 75.6 nM.
For `CN1C(=O)[C@@H](NC(=O)c2n[nH]c3c2CC(CC(F)(F)F)OC3)COc2ccccc21` (stereo partly drawn) [Example 210, N—((S)-5-methyl-4-oxo-2,3,4,5-tetrahydrobenzo[b][1,4]oxazepin-3-yl)-5-(2,2,2-trifluoroethyl)-1,4,5,7-tetrahydropyrano[3,4-c]pyrazole-3-carboxamide], the Ki was 193 nM.
Consider `CN1C(=O)[C@@H](NC(=O)c2n[nH]c3c2CC2(CCC2)OC3)COc2ccccc21` [Example 211, (S)—N-(5-methyl-4-oxo-2,3,4,5-tetrahydrobenzo[b][1,4]oxazepin-3-yl)-4′,7′-dihydro-1′H-spiro[cyclobutane-1,5′-pyrano[3,4-c]pyrazole]-3′-carboxamide], for which the Ki turned out to be 156 nM.
As for `CN1C(=O)[C@@H](NC(=O)c2n[nH]c3c2CC(C)(c2ccccc2)OC3)COc2ccccc21` (stereo partly drawn) [Example 212, 5-methyl-N—((S)-5-methyl-4-oxo-2,3,4,5-tetrahydrobenzo[b][1,4]oxazepin-3-yl)-5-phenyl-1,4,5,7-tetrahydropyrano[3,4-c]pyrazole-3-carboxamide], the inhibition constant (Ki) came to 573 nM.
The same measure for `CC(C)n1ncc2cnc(C(=O)N[C@H]3COc4ccccc4N(C)C3=O)cc21` [Example 213, (S)-1-isopropyl-N-(5-methyl-4-oxo-2,3,4,5-tetrahydrobenzo[b][1,4]oxazepin-3-yl)-1H-pyrazolo[4,3-c]pyridine-6-carboxamide]: 12.3 nM; for `Cc1ncn2c1N(C)C(=O)C(NC(=O)c1ncn(Cc3ccccc3)n1)CC2` (stereo not shown) [Example 215, 1-benzyl-N-(1,9-dimethyl-2-oxo-2,3,4,5-tetrahydro-1H-imidazo[1,5-a][1,3]diazepin-3-yl)-1H-1,2,4-triazole-3-carboxamide]: 106 nM; for `CN1C(=O)C(NC(=O)c2cn(Cc3ccccc3)nn2)CCn2nc(-c3ccccc3)cc21` (stereo not shown) [Example 216, 1-benzyl-N-(4-methyl-5-oxo-2-phenyl-5,6,7,8-tetrahydro-4H-pyrazolo[1,5-a][1,3]diazepin-6-yl)-1H-1,2,3-triazole-4-carboxamide]: 97.2 nM.
As to `CN1C(=O)[C@@H](NC(=O)c2ncc3c(n2)C(C)(C)OC3)COc2ccccc21` [Example 217, (S)-7,7-dimethyl-N-(5-methyl-4-oxo-2,3,4,5-tetrahydrobenzo[b][1,4]oxazepin-3-yl)-5,7-dihydrofuro[3,4-d]pyrimidine-2-carboxamide], the inhibitory constant (Ki) stood at 61.7 nM.
On to `CN1C(=O)[C@@H](NC(=O)c2ncc3c(n2)C(C)(C)SC3)COc2ccccc21` [Example 218, (S)-7,7-dimethyl-N-(5-methyl-4-oxo-2,3,4,5-tetrahydrobenzo[b][1,4]oxazepin-3-yl)-5,7-dihydrothieno[3,4-d]pyrimidine-2-carboxamide], for which the inhibition constant (Ki) was 25.4 nM.
For `Cc1cc2n(n1)CC[C@H](NC(=O)c1ncn(Cc3cccc(F)c3F)n1)C(=O)N2C` [Example 219, (S)-1-(2,3-difluorobenzyl)-N-(2,4-dimethyl-5-oxo-5,6,7,8-tetrahydro-4H-pyrazolo[1,5-a][1,3]diazepin-6-yl)-1H-1,2,4-triazole-3-carboxamide], the Ki was 29.7 nM.
Turning to `Cc1cc2n(n1)CC[C@H](NC(=O)c1ncn(Cc3ccc(F)c(F)c3)n1)C(=O)N2C` [Example 220, (S)-1-(3,4-difluorobenzyl)-N-(2,4-dimethyl-5-oxo-5,6,7,8-tetrahydro-4H-pyrazolo[1,5-a][1,3]diazepin-6-yl)-1H-1,2,4-triazole-3-carboxamide], the Ki is 47.1 nM.
Consider `Cc1cc2n(n1)CC[C@H](NC(=O)c1ncn(Cc3ccc(F)cc3F)n1)C(=O)N2C` [Example 221, (S)-1-(2,4-difluorobenzyl)-N-(2,4-dimethyl-5-oxo-5,6,7,8-tetrahydro-4H-pyrazolo[1,5-a][1,3]diazepin-6-yl)-1H-1,2,4-triazole-3-carboxamide], for which the inhibitory constant (Ki) is 37.7 nM.
For the molecule `Cc1cc2n(n1)CC[C@H](NC(=O)c1ncn(Cc3ccc(F)cc3)n1)C(=O)N2C` [Example 222, (S)—N-(2,4-dimethyl-5-oxo-5,6,7,8-tetrahydro-4H-pyrazolo[1,5-a][1,3]diazepin-6-yl)-1-(4-fluorobenzyl)-1H-1,2,4-triazole-3-carboxamide], the inhibitory constant (Ki) worked out at 25.9 nM.
For `CN1C(=O)[C@@H](NC(=O)c2ncn(Cc3ccc(F)c(F)c3)n2)CCn2nc(C3CC3)cc21` [Example 223, (S)—N-(2-cyclopropyl-4-methyl-5-oxo-5,6,7,8-tetrahydro-4H-pyrazolo[1,5-a][1,3]diazepin-6-yl)-1-(3,4-difluorobenzyl)-1H-1,2,4-triazole-3-carboxamide], the Ki is 31.9 nM.
The same measure for `CN1C(=O)[C@@H](NC(=O)c2ncn(Cc3ccc(F)cc3F)n2)CCn2nc(C3CC3)cc21` [Example 224, (S)—N-(2-cyclopropyl-4-methyl-5-oxo-5,6,7,8-tetrahydro-4H-pyrazolo[1,5-a][1,3]diazepin-6-yl)-1-(2,4-difluorobenzyl)-1H-1,2,4-triazole-3-carboxamide]: 21.9 nM.
Take `CN1C(=O)[C@@H](NC(=O)c2ncn(Cc3ccc(F)cc3)n2)CCn2nc(C3CC3)cc21` [Example 225, (S)—N-(2-cyclopropyl-4-methyl-5-oxo-5,6,7,8-tetrahydro-4H-pyrazolo[1,5-a][1,3]diazepin-6-yl)-1-(4-fluorobenzyl)-1H-1,2,4-triazole-3-carboxamide]: the inhibition constant (Ki) amounted to 21 nM.

Broadly, the Ki is a measure of affinity in units of concentration, obtained from inhibition or displacement.
